Measured values published in PubChem BioAssay AID248 (DTP/NCI, 2004).
Values joined by “and” are separate entries in the source; they are usually repeats but may differ in a detail not shown here. Equal values may be shown once. Toxic doses and inconclusive results are not listed.

System: L1210 leukemia ip in BDF1 mice, survival T/C
Assay: NCI In Vivo Anticancer Drug Screen. Data for tumor model L1210 Leukemia (intraperitoneal) in B6D2F1 (BDF1) mice
Details: endpoint: mean survival time, higher = longer survival
Outline: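 Survival endpoint. Drug-treated group vs vehicle group, expressed as T divided by C. Tumor passaged by transplantation.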

[1] = dose: 100.0 mg/kg/injection, schedule: Q01DX001 (ip), vehicle: carboxymethylcellulose (CMC)
[2] = dose: 200.0 mg/kg/injection, schedule: Q01DX001 (ip), vehicle: carboxymethylcellulose (CMC)
[3] = dose: 400.0 mg/kg/injection, schedule: Q01DX001 (ip), vehicle: carboxymethylcellulose (CMC)
[4] = dose: 100.0 mg/kg/injection, schedule: Q01DX009 (ip), vehicle: Klucel (hydroxypropylcellulose) (HPC)
[5] = dose: 200.0 mg/kg/injection, schedule: Q01DX009 (ip), vehicle: Klucel (hydroxypropylcellulose) (HPC)
[6] = dose: 50.0 mg/kg/injection, schedule: Q01DX001 (ip), vehicle: saline
[7] = dose: 100.0 mg/kg/injection, schedule: Q01DX001 (ip), vehicle: saline
[8] = dose: 200.0 mg/kg/injection, schedule: Q01DX001 (ip), vehicle: saline
[9] = dose: 400.0 mg/kg/injection, schedule: Q01DX001 (ip), vehicle: saline
[10] = dose: 100.0 mg/kg/injection, schedule: Q01DX001 (ip), vehicle: saline with Tween-80
[11] = dose: 200.0 mg/kg/injection, schedule: Q01DX001 (ip), vehicle: saline with Tween-80
[12] = dose: 100.0 mg/kg/injection, schedule: Q01DX009 (ip), vehicle: saline
[13] = dose: 200.0 mg/kg/injection, schedule: Q01DX009 (ip), vehicle: saline
[14] = dose: 400.0 mg/kg/injection, schedule: Q01DX009 (ip), vehicle: saline
[15] = dose: 12.5 mg/kg/injection, schedule: Q01DX001 (ip), vehicle: saline

## CCOC(=O)c1[nH]cnc1/N=N/N(C)C1CCCCC1
dose: 85.0 mg/kg/injection, schedule: Q01DX015 (ip), vehicle: carboxymethylcellulose (CMC)
  T/C: 103 % of control
[1]
  T/C: 98 % of control
dose: 114.0 mg/kg/injection, schedule: Q01DX015 (ip), vehicle: carboxymethylcellulose (CMC)
  T/C: 107 % of control
[2]
  T/C: 109 % of control
[3]
  T/C: 102 % of control

## CCCCCCOC(=O)C(N)Cc1ccc(N(CCCl)CCCl)cc1 (stereo not drawn)
dose: 2.8 mg/kg/injection, schedule: Q01DX009 (ip), vehicle: other
  T/C: 110 % of control
dose: 5.6 mg/kg/injection, schedule: Q01DX001 (ip), vehicle: other
  T/C: 110 % of control
dose: 5.6 mg/kg/injection, schedule: Q01DX009 (ip), vehicle: other
  T/C: 106 % of control
dose: 11.25 mg/kg/injection, schedule: Q01DX001 (ip), vehicle: other
  T/C: 110 % of control
dose: 11.25 mg/kg/injection, schedule: Q01DX009 (ip), vehicle: other
  T/C: 116 % of control
dose: 22.5 mg/kg/injection, schedule: Q01DX001 (ip), vehicle: other
  T/C: 121 % of control

## NC(=O)c1c(CC(=O)O)nn(-c2ccccc2)c1N
dose: 50.0 mg/kg/injection, schedule: Q01DX009 (ip), vehicle: Klucel (hydroxypropylcellulose) (HPC)
  T/C: 94 % of control
[4]
  T/C: 98 % of control
[5]
  T/C: 102 % of control

## O=C(O)COC1CCC(Cl)CC1 (stereo not drawn)
dose: 100.0 mg/kg/injection, schedule: Q01DX009 (ip), vehicle: saline with Tween-80
  T/C: 106 % of control
dose: 100.0 mg/kg/injection, schedule: Q04DX003 (ip), vehicle: acetone
  T/C: 101 % of control
dose: 200.0 mg/kg/injection, schedule: Q01DX009 (ip), vehicle: saline with Tween-80
  T/C: 94 % of control
dose: 200.0 mg/kg/injection, schedule: Q04DX003 (ip), vehicle: acetone
  T/C: 95 % of control
dose: 400.0 mg/kg/injection, schedule: Q01DX009 (ip), vehicle: saline with Tween-80
  T/C: 96 % of control
dose: 400.0 mg/kg/injection, schedule: Q04DX003 (ip), vehicle: acetone
  T/C: 91 % of control

## Cc1cc(=O)[nH]c2nc(N)ccc12
[6]
  T/C: 101 % of control
[7]
  T/C: 93 % of control
[8]
  T/C: 93 % of control
[9]
  T/C: 101 % of control

## c1ccc2c(N=Nc3cccc4ccccc34)cccc2c1
[1]
  T/C: 97 % of control
[2]
  T/C: 97 % of control
[3]
  T/C: 93 % of control

## O=C(O)CC1CCCCC1NC(=O)c1ccccc1 (stereo not drawn)
[10]
  T/C: 100 % of control
[11]
  T/C: 94 % of control
dose: 400.0 mg/kg/injection, schedule: Q01DX001 (ip), vehicle: saline with Tween-80
  T/C: 95 % of control

## COc1cc(Cl)ccc1NC(=O)OCCc1ccccn1
[12]
  T/C: 97 % of control
[13]
  T/C: 100 % of control
[14]
  T/C: 97 % of control

## O=c1c(N=Nc2ccc(Cl)cc2)c(O)n(-c2ccc(I)cc2)c(=S)n1-c1ccccc1
dose: 100.0 mg/kg/injection, schedule: Q01DX001 (ip), vehicle: Klucel (hydroxypropylcellulose) (HPC)
  T/C: 93 % of control
dose: 200.0 mg/kg/injection, schedule: Q01DX001 (ip), vehicle: Klucel (hydroxypropylcellulose) (HPC)
  T/C: 104 % of control
dose: 400.0 mg/kg/injection, schedule: Q01DX001 (ip), vehicle: Klucel (hydroxypropylcellulose) (HPC)
  T/C: 102 % of control

## COC1=C(NCc2ccco2)C(=O)C(OC)=C(NCc2ccco2)C1=O
dose: 50.0 mg/kg/injection, schedule: Q01DX001 (ip), vehicle: carboxymethylcellulose (CMC)
  T/C: 96 % of control
[1]
  T/C: 91 % of control
[2]
  T/C: 86 % of control
[3]
  T/C: 96 % of control

## O=NN(CCCl)C(=O)NC1CCC(O)CC1 (stereo not drawn)
dose: 6.25 mg/kg/injection, schedule: Q01DX001 (ip), vehicle: saline with Tween-80
  T/C: 121 % of control
dose: 12.5 mg/kg/injection, schedule: Q01DX001 (ip), vehicle: saline with Tween-80
  T/C: 189 % of control
[15]
  T/C: 172 % of control and 239 % of control
dose: 13.0 mg/kg/injection, schedule: Q01DX001 (ip), vehicle: saline
  T/C: 384 % of control
dose: 20.0 mg/kg/injection, schedule: Q01DX001 (ip), vehicle: saline
  T/C: 494 % of control
dose: 25.0 mg/kg/injection, schedule: Q01DX001 (ip), vehicle: saline with Tween-80
  T/C: 211 % of control
dose: 25.0 mg/kg/injection, schedule: Q01DX001 (ip), vehicle: saline
  T/C: 198 % of control and 210 % of control and 253 % of control
dose: 26.0 mg/kg/injection, schedule: Q01DX001 (ip), vehicle: saline
  T/C: 401 % of control
dose: 30.0 mg/kg/injection, schedule: Q01DX001 (ip), vehicle: saline
  T/C: 494 % of control
dose: 40.0 mg/kg/injection, schedule: Q01DX001 (ip), vehicle: saline
  T/C: 435 % of control
dose: 44.0 mg/kg/injection, schedule: Q01DX001 (ip), vehicle: saline
  T/C: 293 % of control
dose: 50.0 mg/kg/injection, schedule: Q01DX001 (ip), vehicle: saline with Tween-80
  T/C: 264 % of control
[6]
  T/C: 252 % of control and 113 % of control and 176 % of control
dose: 60.0 mg/kg/injection, schedule: Q01DX001 (ip), vehicle: saline
  T/C: 240 % of control
[10]
  T/C: 92 % of control
[7]
  T/C: 105 % of control and 99 % of control and 110 % of control
[11]
  T/C: 87 % of control
[8]
  T/C: 103 % of control and 95 % of control and 106 % of control

## CCCCCCCCCCCCCCCCCC(=O)N/N=C/C(C=C=C(C)C)(CC)CCCC (stereo not drawn)
[4]
  T/C: 101 % of control
[5]
  T/C: 96 % of control
dose: 400.0 mg/kg/injection, schedule: Q01DX009 (ip), vehicle: Klucel (hydroxypropylcellulose) (HPC)
  T/C: 96 % of control

## O=NN1CCN(c2ccccc2)C1=O
dose: 18.0 mg/kg/injection, schedule: Q01DX001 (ip), vehicle: carboxymethylcellulose (CMC)
  T/C: 94 % of control
dose: 37.0 mg/kg/injection, schedule: Q01DX001 (ip), vehicle: carboxymethylcellulose (CMC)
  T/C: 96 % of control
dose: 75.0 mg/kg/injection, schedule: Q01DX001 (ip), vehicle: carboxymethylcellulose (CMC)
  T/C: 102 % of control
[1]
  T/C: 98 % of control
dose: 150.0 mg/kg/injection, schedule: Q01DX001 (ip), vehicle: carboxymethylcellulose (CMC)
  T/C: 98 % of control
[2]
  T/C: 104 % of control
dose: 250.0 mg/kg/injection, schedule: Q01DX001 (ip), vehicle: carboxymethylcellulose (CMC)
  T/C: 96 % of control
dose: 300.0 mg/kg/injection, schedule: Q01DX001 (ip), vehicle: carboxymethylcellulose (CMC)
  T/C: 105 % of control
[3]
  T/C: 98 % of control
dose: 500.0 mg/kg/injection, schedule: Q01DX001 (ip), vehicle: carboxymethylcellulose (CMC)
  T/C: 106 % of control
dose: 600.0 mg/kg/injection, schedule: Q01DX001 (ip), vehicle: carboxymethylcellulose (CMC)
  T/C: 91 % of control
dose: 800.0 mg/kg/injection, schedule: Q01DX001 (ip), vehicle: carboxymethylcellulose (CMC)
  T/C: 96 % of control

## CCCCCCCCC(=O)CC
[12]
  T/C: 104 % of control
[13]
  T/C: 98 % of control
[14]
  T/C: 94 % of control

## CCCCCCCCCCCC[N+](C)(C)Cc1ccccc1
dose: 1.56 mg/kg/injection, schedule: Q01DX009 (ip), vehicle: saline
  T/C: 106 % of control
dose: 3.12 mg/kg/injection, schedule: Q01DX009 (ip), vehicle: saline
  T/C: 111 % of control
dose: 3.12 mg/kg/injection, schedule: Q04DX003 (ip), vehicle: saline
  T/C: 98 % of control
dose: 6.25 mg/kg/injection, schedule: Q04DX003 (ip), vehicle: saline
  T/C: 104 % of control
[15]
  T/C: 103 % of control

## O=C(CCCC(=O)N/N=C/c1ccc(C(=O)O)cc1)N/N=C\c1ccc(C(=O)O)cc1
[6]
  T/C: 104 % of control
[7]
  T/C: 102 % of control
[8]
  T/C: 98 % of control
[9]
  T/C: 98 % of control

## CCOC(=O)C/C(=C/c1ccco1)C(=O)OCC
[7]
  T/C: 86 % of control
dose: 100.0 mg/kg/injection, schedule: Q04DX003 (ip), vehicle: saline
  T/C: 89 % of control
[8]
  T/C: 92 % of control
dose: 200.0 mg/kg/injection, schedule: Q04DX003 (ip), vehicle: saline
  T/C: 96 % of control
[9]
  T/C: 89 % of control
dose: 400.0 mg/kg/injection, schedule: Q04DX003 (ip), vehicle: saline
  T/C: 89 % of control

## O=c1[nH]nnc2[nH]ncc12
dose: 100.0 mg/kg/injection, schedule: Q04DX003 (ip), vehicle: saline with Tween-80
  T/C: 102 % of control
dose: 200.0 mg/kg/injection, schedule: Q04DX003 (ip), vehicle: saline with Tween-80
  T/C: 104 % of control
dose: 400.0 mg/kg/injection, schedule: Q04DX003 (ip), vehicle: saline with Tween-80
  T/C: 98 % of control

## O=C(CCN1CCCCC1)c1ccc([N+](=O)[O-])cc1
[8]
  T/C: 103 % of control

## C(=N\Nc1c2ccccc2nc2ccccc12)/c1ccc2c(c1)OCO2
[7]
  T/C: 89 % of control
[8]
  T/C: 100 % of control
[9]
  T/C: 89 % of control
